From patent publication US20220260552A1, “Methods to determine the effect of an agent on mammalian embryonic development” (Toxys B.V., priority 2019, published 2022)

Legend:
[1] = system: mES cells differentiated towards cardiomyocytes; experiment: mES cell differentiation towards cardiomyocytes, beating embryoid bodies counted; type: cell-based, mouse; details: after 13 days of differentiation; FIG. 5B
Source text: FIG. 5: Defective cardiomyocyte differentiation upon teratogenic compound exposure. mES cells were exposed to teratogenic compounds during mES cell differentiation towards cardiomyocytes. The percentage of beating 3D embryoid bodies (examples in A), representing functional cardiomyocytes, was counted. (B) Quantification of beating bodies. Presented values are expressed as percentages of control. Students t-test was used to determine significance. *p<0.05, **p<0.01, ***p<0.001.
For cardiomyocyte differentiation embryonic bodies were used, formed by hanging drops containing 750 cells in Iscoves's Modified Dulbecco's Medium (IMDM). Prior to hanging drop formation, cells were cultured on gelatine-coated dishes in IMDM supplemented with 20% FBS. Cells were detached with cell dissociation buffer (Gibco). After 3 days, embryonic bodies were transferred to a bacterial plate in differentiation medium (IMDM, 10% serum (unless specified otherwise), PS, NEAA and 2-mercapto ethanol). On day 5, the bodies were transferred to a 48-well plate in differentiation medium containing 2% serum, BMP, Activin A, Chir99021 and Xav939. On day 7 embryonic bodies were exposed to only Xav939 in differentiation medium and on day 11 all growth factors were removed and replaced with differentiation medium. Day 13 was used as endpoint for cardiomyocyte differentiation. On this day, beating bodies were quantified and RNA samples collected.

[2] = system: GFP-Ck18 mES reporter cells; experiment: mES GFP-Ck18 reporter cell differentiation towards hepatocytes, GFP fluorescence intensity; type: cell-based, mouse; details: after 21 days of differentiation; normalized to DAPI; FIG. 8
Description: FIG. 8: Defective hepatocyte differentiation upon teratogenic compound exposure. mES GFP-Ck18 reporter cells were exposed to different teratogenic compounds during mES cell differentiation towards hepatocytes. After 21 days, fluorescence intensity of the hepatocyte specific GFP-Ck18 reporter was measured using microscopy and quantified using Fiji image processing software. GFP intensity was normalized to nuclear intensity measured using DAPI. Presented values are expressed as percentages of control. Student t-test was used for determination of significance. *p<0.05 **p<0.01.*** p<0.001.
Hepatocyte differentiation was started from a monolayer of mES cells on day −1. On day 0, differentiation medium supplemented with Activin A was added. On day 4, the medium was replaced with liver differentiation medium (DMEM containing 10% serum, PS, NEAA and 2-mercaptoethanol) with aFGF and sodium butyrate. On day 9, the medium was replaced with liver differentiation medium containing HGF. On day 14, cells were exposed to liver differentiation medium containing Dexamethasone and Oncostatin M. From day 17 onwards, liver differentiation medium was refreshed every 3-4 days. Endpoint of differentiation was set on day 21.
mES cells were seeded on gelatin-coated culture dishes 24 h prior to transfection. […] GFP expression in differentiated cells was determined by flow cytometry.

[3] = system: hiPSC cells differentiated towards hepatocytes; experiment: hiPSC differentiation towards hepatocytes in presence of compound, biomarker expression by qPCR; type: cell-based, human
Description: The hepatocyte differentiation protocol is based on (Chen et al., 2012, which is incorporated herein by reference). In brief, hiPSC cells were seeded on day −4 in mTESR medium on Matrigel. On day 0 the mTESR medium was replaced with RPMI medium containing B27, Activin A, Chir99021, HGF and PS. On day 3, the cells were refreshed with DMEM medium containing KO serum replacement, Glutamax, NEAA, 2-mercaptoethanol, DMSO and PS. On day 7, the medium was replaced with IMDM medium containing oncostatin M, dexamethasone, ITS, Glutamax, NEAA and PS. On day 10, 14 and 17, cells are refreshed with IMDM medium containing ITS, Glutamax, NEAA and PS. RNA samples were collected on day 0, day 7 and day 21 of differentiation.
(§1) To assess the effect of potential teratogenic agents, hiPSC were treated with the test material from day 0 until the end of differentiation. When differentiation medium was refreshed, fresh compound was added.
(§2) Induction of the biomarker expression was compared with the expression of the gene in undifferentiated cells using quantitative real-time PCR (qRT-PCR). At several time points during differentiation, total RNA was isolated using Trizol […]. Complementary DNA was synthesized using oligo(dT) primers and SuperScript […] ReverseTranscriptase (Invitrogen) according to the manufacturer's protocol. Expression of biomarker genes was determined using specific primers (SEQ ID NOs: 68-99, 105 and 106) spanning the exon-exon boundaries of the genes with the PowerUP SYBR Green Master Mix (Applied Biosystems) on a Quantstudio 5 Real-Time PCR System (Applied Biosystems) using ROX as a passive reference. Relative expression was normalized using expression of the GAPDH and HPRT genes.

[4] = system: hiPSC cells differentiated towards cardiomyocytes; experiment: hiPSC differentiation towards cardiomyocytes in presence of compound, biomarker expression by qPCR; type: cell-based, human
Description: Briefly, on day −4, hiPSC cells were seeded in 24-well plates in mTESR medium on Matrigel. On day 0, the medium was replaced with BEL medium (IMDM, HF12 medium, PFHMII medium, BSA, ITS-X, CD lipids, α-Monothioglycerol, Glutamax, PS and ascorbic acid) containing BMP4, Activin A and Chir99021. At day 3 of differentiation, the medium was refreshed with BEL containing Xav939. On day 7 and 10 of differentiation, the medium was replaced with BEL without growth factors. RNA samples were collected on day 0, day 7 and day 14 of differentiation.
Induction of the biomarker expression was compared with the expression of the gene in undifferentiated cells using quantitative real-time PCR (qRT-PCR). At several time points during differentiation, total RNA was isolated using Trizol (Qiagen). Complementary DNA was synthesized using oligo(dT) primers and SuperScript VI ReverseTranscriptase (Invitrogen) according to the manufacturer's protocol. […] Relative expression was normalized using expression of the GAPDH and HPRT genes.

[5] = system: hiPSC cells differentiated towards neural rosettes; experiment: hiPSC differentiation towards neural rosettes in presence of compound, biomarker expression by qPCR; type: cell-based, human; details: compound added during differentiation, day 0 until end, FIG. 2
Description: The protocol for neural differentiation is based on (Lippmann, Estevez-Silva, & Ashton, 2014, which is incorporated herein by reference). In short, hiPSC were seeded in mTESR medium on Matrigel on day −1. On day 0, medium was replaced with E6 medium with PS to start differentiation. Medium was refreshed with E6 medium on Day 3 and 7. RNA samples were collected on day 0, day 7 and day 10.
as §1, §2

## O=c1[nH]cc(F)c(=O)[nH]1 [5′fluoracil, 5-fluorouracil]
[1]
  beating cardiomyocytes (beating embryoid bodies): decrease
[2]
  GFP-Ck18 intensity: significantly reduced

## C=CC(N)=O [acrylamide]
[3]; compound present during differentiation, qPCR, T-test vs vehicle control, FIG. 3
  biomarker expression during hepatocyte differentiation: no significant reduction

## O=C1NC(=O)C(c2ccccc2)(c2ccccc2)N1 [diphenylhydantoin]
[1]
  beating cardiomyocytes (beating embryoid bodies): decrease

## CC1=C(/C=C/C(C)=C/C=C/C(C)=C/C(=O)O)C(C)(C)CCC1 [retinoic acid, All-trans retinoic acid]
[1]
  beating cardiomyocytes (beating embryoid bodies): decrease
[4]
  Expression of MYH6 in cardiomyocytes: reduced
[5]
  Expression of PAX6 in neural rosettes: reduced
[2]
  GFP-Ck18 intensity: significantly reduced
[3]
  Expression of AFP in hepatocytes: reduced
  Expression of ALB in hepatocytes: reduced
